Measured values taken from patent US9650339B2, “Inhibitors of histone demethylases” (Gilead Sciences, Inc., priority 2013, dated 2017).
pEC50, pIC50: −log10 of the molar value. Where two headings read alike, the source gives them in different places.

Key:
KDM4C (JMJD2C) = target: T1, KDM4C (JMJD2C) (Homo sapiens, UniProt Q9H3R0); assay: Histone lysine demethylase AlphaLISA assay, KDM4C; type: biochemical
T1 sequence (Q9H3R0 1-349): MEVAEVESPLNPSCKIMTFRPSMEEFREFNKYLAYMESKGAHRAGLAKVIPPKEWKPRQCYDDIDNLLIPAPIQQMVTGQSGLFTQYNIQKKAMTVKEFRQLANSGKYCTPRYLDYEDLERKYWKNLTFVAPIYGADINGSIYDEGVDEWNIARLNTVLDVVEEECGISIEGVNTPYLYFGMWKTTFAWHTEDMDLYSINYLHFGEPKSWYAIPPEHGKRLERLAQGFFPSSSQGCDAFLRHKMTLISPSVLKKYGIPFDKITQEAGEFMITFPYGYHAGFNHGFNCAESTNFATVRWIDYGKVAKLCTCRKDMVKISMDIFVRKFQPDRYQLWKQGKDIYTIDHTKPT
Experimental: (§1) Assays are performed analogously to the protocol described by PerkinElmer (Roy et al. PerkinElmer Technical Note: AlphaLISA #12, April 2011)
(§2) Enzymes are dissolved in enzyme buffer and incubated for 10 min before being added to 3% DMSO solutions of compounds in enzyme buffer. Incubated for another 10 minutes, before substrate solution is added and the reaction mixture is incubated at room temperature. 10 μL acceptor beads, suspended in Epigenetic Buffer (Perkin Elmer AL008) from stock, are added and the suspension is incubated in the dark at room temperature, before a suspension of streptavidin donor beads (Perkin Elmer 6760002) in Epigenetic Buffer is added. After incubation at room temperature in the dark the plates are read.
BK9M3: Biotin-ARTKQTAR(KMe3)STGGKAPRKQ-NH2 (Caslo, Denmark) […]
(§3) Substrate Solution: Substrate, 25 μM L-Asc, and 10 μM α-KG in Buffer A.

KDM5B (PLU-1) = target: T2, KDM5B (PLU-1) (Homo sapiens, UniProt Q9UGL1); assay: Histone lysine demethylase AlphaLISA assay, KDM5B; type: biochemical
T2 sequence (Q9UGL1 1-809): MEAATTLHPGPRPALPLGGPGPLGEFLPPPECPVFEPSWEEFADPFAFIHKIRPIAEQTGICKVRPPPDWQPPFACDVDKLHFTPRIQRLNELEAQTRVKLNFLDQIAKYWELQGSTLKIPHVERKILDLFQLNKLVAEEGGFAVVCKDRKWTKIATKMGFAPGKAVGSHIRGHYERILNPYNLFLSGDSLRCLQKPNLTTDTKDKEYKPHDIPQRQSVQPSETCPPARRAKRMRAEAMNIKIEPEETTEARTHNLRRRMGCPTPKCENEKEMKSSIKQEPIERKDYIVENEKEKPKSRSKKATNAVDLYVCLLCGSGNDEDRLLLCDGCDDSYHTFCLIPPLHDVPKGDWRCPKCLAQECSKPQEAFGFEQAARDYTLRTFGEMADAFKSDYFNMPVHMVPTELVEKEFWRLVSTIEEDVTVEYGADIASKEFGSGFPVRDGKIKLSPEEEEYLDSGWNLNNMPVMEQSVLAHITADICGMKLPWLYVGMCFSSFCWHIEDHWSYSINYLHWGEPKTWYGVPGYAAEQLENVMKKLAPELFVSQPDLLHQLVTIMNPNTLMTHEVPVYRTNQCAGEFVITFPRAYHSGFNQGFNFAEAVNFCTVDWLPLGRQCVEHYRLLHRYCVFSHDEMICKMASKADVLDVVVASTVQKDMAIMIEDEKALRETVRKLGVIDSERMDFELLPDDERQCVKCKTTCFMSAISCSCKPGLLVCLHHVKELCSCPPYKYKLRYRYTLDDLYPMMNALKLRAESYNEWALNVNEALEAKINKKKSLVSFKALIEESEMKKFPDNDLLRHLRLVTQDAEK
Experimental: as §1
as §2, with “read. […]” for “read.”
H3K4M3B: H-ART(Kme3)QTARKSTGGKAPRKQLA-NH-Biotin (Caslo, Denmark) […]
as §3

KDM6A (UTX) = KDM6A (UTX) (Homo sapiens, UniProt O15550); assay: Histone lysine demethylase AlphaLISA assay, KDM6A; type: biochemical
Experimental: as §1
as §2, with “read. […]” for “read.”
BK27M3: Biotin-ATKAAR(Kme3)SAPATGGVKKPHRY-NH2? (Caslo, Denmark) […]
as §3

MCF7 cells = assay: Cell proliferation assay MCF7; type: cell-based; conditions: MCF7 human breast cancer cells; 120 hours; ATPlite 1 Step
Experimental: MCF7 cells were seeded in multi well plates at a density optimized to give approximately 90% confluent cells at the time of harvest. Cells were incubated for 24 hours before addition of compound. Compounds were diluted in complete medium and added to the plates in duplicates. The final concentration of DMSO was maximum 0.5%. Complete medium used was DMEM with GlutaMAX containing 10% FBS and pen/strep.
120 hours after addition of compounds, the plates were harvested and analyzed by ATPlite 1 Step (Perkin Elmer, cat no 6016739) according to the manufactures recommendation.

KDM2B (FBXL10) = target: T3, KDM2B (FBXL10) (Homo sapiens, UniProt Q8NHM5); assay: Histone lysine demethylase AlphaLISA assay, KDM2B; type: biochemical; conditions: read-out: KDM2B HDME Inhibition IC50
T3 sequence (Q8NHM5 1-650): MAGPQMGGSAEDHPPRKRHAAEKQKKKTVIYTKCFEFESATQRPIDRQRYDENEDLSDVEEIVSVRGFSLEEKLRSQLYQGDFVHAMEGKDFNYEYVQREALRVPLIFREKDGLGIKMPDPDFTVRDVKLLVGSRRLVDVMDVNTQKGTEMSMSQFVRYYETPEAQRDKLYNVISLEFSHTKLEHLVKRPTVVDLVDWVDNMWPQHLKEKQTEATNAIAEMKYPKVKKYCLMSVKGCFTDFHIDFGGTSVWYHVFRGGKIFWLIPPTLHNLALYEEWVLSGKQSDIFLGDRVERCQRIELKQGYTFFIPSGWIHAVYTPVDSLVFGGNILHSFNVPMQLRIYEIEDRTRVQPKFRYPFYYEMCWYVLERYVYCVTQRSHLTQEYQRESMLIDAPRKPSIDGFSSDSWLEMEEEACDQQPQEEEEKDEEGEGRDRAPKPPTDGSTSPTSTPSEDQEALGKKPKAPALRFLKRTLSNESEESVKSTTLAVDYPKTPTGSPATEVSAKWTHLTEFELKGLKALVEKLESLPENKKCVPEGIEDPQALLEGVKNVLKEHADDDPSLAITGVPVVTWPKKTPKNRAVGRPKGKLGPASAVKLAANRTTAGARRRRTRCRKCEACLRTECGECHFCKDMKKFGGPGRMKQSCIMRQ
Experimental: as §1
as §2, with “read. […]” for “read.”
BH3K36M2: RKAAPATGGVK(Me2)KPHRYRPGTVK-(BIOTIN)? (Anaspec)
as §3

[1] = read-out: KDM4C HDME Inhibition IC50
[2] = read-out: KDM5B HDME Inhibition IC50
[3] = read-out: KDM6A HDME Inhibition IC50

Chain of KDM6A (UTX) (O15550 919-1401): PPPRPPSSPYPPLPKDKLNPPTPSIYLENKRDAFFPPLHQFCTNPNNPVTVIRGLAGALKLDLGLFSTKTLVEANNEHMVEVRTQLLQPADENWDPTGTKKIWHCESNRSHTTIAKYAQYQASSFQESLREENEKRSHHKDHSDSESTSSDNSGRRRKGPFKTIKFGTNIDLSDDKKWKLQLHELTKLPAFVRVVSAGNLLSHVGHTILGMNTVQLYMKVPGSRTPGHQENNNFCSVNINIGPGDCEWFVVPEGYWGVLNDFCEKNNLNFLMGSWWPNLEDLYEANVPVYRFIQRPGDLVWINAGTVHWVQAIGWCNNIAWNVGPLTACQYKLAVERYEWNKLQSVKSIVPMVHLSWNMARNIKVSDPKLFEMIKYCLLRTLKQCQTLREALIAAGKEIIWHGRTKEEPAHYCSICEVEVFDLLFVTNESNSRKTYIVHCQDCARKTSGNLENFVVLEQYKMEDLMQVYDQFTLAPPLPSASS

| Compound | pIC50 (KDM4C (JMJD2C)) | pIC50 (KDM5B (PLU-1)) | pIC50 (KDM6A (UTX)) | pEC50 (MCF7 cells) | pIC50 (KDM2B (FBXL10)) | pIC50 (KDM4C (JMJD2C); [1]) | pIC50 (KDM5B (PLU-1); [2]) | pIC50 (KDM6A (UTX); [3]) |
| --- | --- | --- | --- | --- | --- | --- | --- | --- |
| CCOC(=O)c1ccccc1OC(=O)NCc1ccnc(CNCC(=O)N(CC)CCN(C)C)c1 [Compound 29, ethyl 2-({[(2-{[({[2-(dimethylamino)-ethyl](ethyl)-carbamoyl}methyl)-amino]methyl}pyridin-4-yl)methyl]-carbamoyl}-oxy)benzoate] | < 5.60 | 5.60 to 6.60 | < 5.60 | 5.60 to 6.60 | – | – | – | – |
| CCN(CCN(C)C)C(=O)CNCc1cc(CNC(=O)C(F)(F)C(F)(F)C(F)(F)F)ccn1 [Compound 31, N-[(2-{[({[2-(dimethylamino)ethyl] (ethyl)carbamoyl}-methyl)amino]methyl}-pyridin-4-yl)-methyl]-2,2,3,3,4,4,4-heptafluorobutanamide] | – | – | – | 5.60 to 6.60 | < 5.60 | < 5.60 | 5.60 to 6.60 | < 5.60 |
| CCN(CC)C(=O)CNCc1cc(/C=N/CCc2ccc(C)cc2)ccn1 [Compound 69, N,N-diethyl-2-[({4-[{[2-(4-methylphenyl)-ethyl]imino}-methyl]pyridin-2-yl}methyl)amino]-acetamide] | – | – | – | < 5.60 | – | 5.60 to 6.60 | > 6.60 | < 5.60 |
| CCN(CC)CCCCNCc1cc(/C=N/CCCO)ccn1 [Compound 71, 3-[{[2-({[4-(diethylamino)-butyl]amino}methyl)pyridin-4-yl]methylidene}amino]-propan-1-ol] | – | – | – | > 6.60 | – | < 5.60 | > 6.60 | < 5.60 |
| CCN(CC)CCCCNCc1cc(C2NCC3(CCCC3)CO2)ccn1 (stereo not drawn) [Compound 72, [4-(diethylamino)-butyl][(4-{7-oxa-9-azaspiro[4.5]decan-8-yl}pyridin-2-yl)methyl]amine] | – | – | – | > 6.60 | < 5.60 | < 5.60 | 5.60 to 6.60 | < 5.60 |
| CCN(CC)CCCCNCc1cc(/C=N/C(C)CO)ccn1 (stereo not drawn) [Compound 73, 2-[{[2-({[4-(diethylamino)-butyl]amino}-methyl)pyridin-4-yl]methylidene}-amino]propan-1-ol] | – | – | – | > 6.60 | – | < 5.60 | > 6.60 | – |
| CCN(CC)CCCCNCc1cc(/C=N/C(CO)c2ccccc2)ccn1 (stereo not drawn) [Compound 75, 2-[{[2-({[4-(diethylamino)-butyl]amino}-methyl)pyridin-4-yl]methylidene}-amino]-2-phenylethan-1-ol] | – | – | – | > 6.60 | – | < 5.60 | > 6.60 | – |
| CCN(CC)CCCCNCc1cc(/C=N/CC(C)(C)CO)ccn1 [Compound 76, 3-[{[2-({[4-(diethylamino)-butyl]amino}-methyl)pyridin-4-yl]methylidene}-amino]-2,2-dimethylpropan-1-ol] | – | – | – | > 6.60 | < 5.60 | < 5.60 | 5.60 to 6.60 | – |
| CCN(CCN(C)C)C(=O)CNCc1cc(/C=N/CCCO)ccn1 [Compound 78, N-[2-(dimethylamino)-ethyl]-N-ethyl-2-[({4-[[(3-hydroxypropyl)imino]-methyl]pyridin-2-yl}-methyl)amino]-acetamide] | – | – | – | > 6.60 | < 5.60 | 5.60 to 6.60 | > 6.60 | – |
| CCN(CC)CCCCNCc1cc(/C=N/CC(CO)Cc2ccccc2)ccn1 (stereo not drawn) [Compound 80, 2-{[{[2-({[4-(diethylamino)-butyl]amino}methyl)pyridin-4-yl]methylidene}-amino]methyl}-3-phenylpropan-1-ol] | – | – | – | 5.60 to 6.60 | 5.60 to 6.60 | > 6.60 | > 6.60 | < 5.60 |
| CCN(CC)CCCCNCc1cc(/C=N/CC(O)Cc2ccccc2)ccn1 (stereo not drawn) [Compound 84, 1-[{[2-({[4-(diethylamino)-butyl]amino}methyl)pyridin-4-yl]methylidene}amino]-3-phenylpropan-2-ol] | – | – | – | > 6.60 | < 5.60 | < 5.60 | 5.60 to 6.60 | < 5.60 |
| CCN(CCN(C)C)C(=O)CNCc1cc(/C=N/CC(O)CN(C)C)ccn1 (stereo not drawn) [Compound 86, 2-[({4-[{[3-(dimethylamino)-2-hydroxypropyl]imino}-methyl]pyridin-2-yl}methyl)amino]-N-[2-(dimethylamino)-ethyl]-N-ethylacetamide] | – | – | – | > 6.60 | < 5.60 | – | > 6.60 | < 5.60 |
| CCN(CCN(C)C)C(=O)CNCc1cc(C2NCC(C)(C)CO2)ccn1 (stereo not drawn) [Compound 87, 2-({[4-(5,5-dimethyl-1,3-oxazinan-2-yl)pyridin-2-yl]methyl}amino)-N-[2-(dimethylamino)-ethyl]-N-ethylacetamide] | – | – | – | > 6.60 | < 5.60 | 5.60 to 6.60 | > 6.60 | – |
| CCN(CCN(C)C)C(=O)CNCc1cc(/C=N/CC(CO)Cc2ccccc2)ccn1 (stereo not drawn) [Compound 89, 2-[({4-[[(2-benzyl-3-hydroxypropyl)imino]methyl]pyridin-2-yl}methyl)amino]-N-[2-(dimethylamino)ethyl]-N-ethylacetamide] | – | – | – | > 6.60 | < 5.60 | 5.60 to 6.60 | > 6.60 | < 5.60 |
| CN(C)C1CCC(CNCc2cc(C=O)ccn2)C1 (stereo not drawn) [Compound 117, 2-[({[3-(dimethylamino)-cyclopenyl]methyl}-amino)methyl] pyridine-4-carbaldehyde] | – | – | – | 5.60 to 6.60 | – | 5.60 to 6.60 | > 6.60 | < 5.60 |
